US8030443B2, “Squamous cell carcinoma antigen-derived peptide binding to HLA-A24 molecule” (Kurume University, priority 2005, dated 2011)

Test system: peptide-specific IgG in sera of cancer patients and healthy donors
Assay: Measurement of anti-peptide IgG in plasma by LUMINEX multiplexed flow cytometric assay
Assay type: binding, human
Protocol: The levels of anti-peptide immunoglobulin G (IgG) were measured by the LUMINEX™ system (multiplexed flow cytometric assay) as previously reported (Komatsu N, Shichijo S, Nakagawa M, Itoh K. New multiplexed flow cytometric assay to measure anti-peptide antibody: a novel tool for monitoring immune responses to peptides used for immunization. Scand J Clin Lab Invest 2004; 64:1-11). In brief, plasma was incubated with 25 μl of peptide-coupled color-coded beads for 2 hr at room temperature on a plate shaker. After incubation, the mixture was washed with a vacuum manifold apparatus and incubated with 100 μl of biotinylated goat anti-human IgG (γ chain-specific)(BA-3080, Vector Laboratories, Burlingame, Calif., USA) for 1 h at room temperature. The plate was then washed, followed by the addition of 100 μl of streptavidin-PE (S-866, Molecular Probes, Eugene, Oreg., USA) into wells, and was incubated for 30 min at room temperature on a plate shaker. The bound beads were washed three times followed by the addition of 100 μl of Tween-PBS into each well. Fifty μl of sample was detected using the LUMINEX™ system (multiplexed flow cytometric assay). To confirm the specificity of IgG to a SCCA peptide, sample plasma was cultured in plates coated with a corresponding SCCA peptide, or with an irrelevant SCCA peptide. After the operation was repeated three times, the levels of the corresponding SCCA peptide-specific IgG in the resulting supernatant were determined by the LUMINEX™ system (multiplexed flow cytometric assay).
These 9 SCCA-derived peptides were screened based on their ability to be recognized by IgG in cancer patients. Peptide-specific IgG was measured by a multiplexed flow cytometric assay (LUMINEX™ (multiplexed flow cytometric assay)). The plasma samples were derived from 35 uterine cervical SCC patients, 10 breast adenocarcinoma patients, 10 pancreatic adenocarcinoma patients, 10 gastric adenocarcinoma, and 6 colon adenocarcinoma patients. The level of fluorescence intensity was judged to be significant when exceeded 100 at an 1/100 dilution.

“AYELKIANKL (SCCA 98-107 peptide) [SCCA-derived peptide, position 98-107]” was tested, and the “Total: healthy donors with significant peptide-reactive IgG / donors tested” value (10 healthy donors, significant when fluorescence intensity exceeded 100 at 1/100 dilution) was 1/10, the “Total: cancer patients with significant peptide-reactive IgG / patients tested” value (71 cancer patients, significant when fluorescence intensity exceeded 100 at 1/100 dilution) was 12/71 and the Fluorescence intesity (serum of Breast Ca. patient #36, 1:100 dilution) was 44. For the same sequence, the Fluorescence intesity (serum of Breast Ca. patient #37, 1:100 dilution) was 18, the Fluorescence intesity (serum of Breast Ca. patient #38, 1:100 dilution) was 12 and the Fluorescence intesity (serum of Breast Ca. patient #39, 1:100 dilution) was 20. The Fluorescence intesity (serum of Breast Ca. patient #40, 1:100 dilution) was 10, the Fluorescence intesity (serum of Breast Ca. patient #41, 1:100 dilution) was 214 and the Fluorescence intesity (serum of Breast Ca. patient #42, 1:100 dilution) was 12. For the same sequence, the Fluorescence intesity (serum of Breast Ca. patient #43, 1:100 dilution) was 12, the Fluorescence intesity (serum of Breast Ca. patient #44, 1:100 dilution) was 0 and the Fluorescence intesity (serum of Breast Ca. patient #45, 1:100 dilution) was 18. The Fluorescence intesity (serum of Colon Ca. patient #66, 1:100 dilution) was 0, the Fluorescence intesity (serum of Colon Ca. patient #67, 1:100 dilution) was 0 and the Fluorescence intesity (serum of Colon Ca. patient #68, 1:100 dilution) was 0. It also gave a Fluorescence intesity (serum of Colon Ca. patient #69, 1:100 dilution) of 0, a Fluorescence intesity (serum of Colon Ca. patient #70, 1:100 dilution) of 0 and a Fluorescence intesity (serum of Colon Ca. patient #71, 1:100 dilution) of 26. For the same sequence, the Fluorescence intesity (serum of Gastric Ca. patient #56, 1:100 dilution) was 2, the Fluorescence intesity (serum of Gastric Ca. patient #57, 1:100 dilution) was 0 and the Fluorescence intesity (serum of Gastric Ca. patient #58, 1:100 dilution) was 0. The Fluorescence intesity (serum of Gastric Ca. patient #59, 1:100 dilution) was 15, the Fluorescence intesity (serum of Gastric Ca. patient #60, 1:100 dilution) was 1 and the Fluorescence intesity (serum of Gastric Ca. patient #61, 1:100 dilution) was 8. It also gave a Fluorescence intesity (serum of Gastric Ca. patient #62, 1:100 dilution) of 0, a Fluorescence intesity (serum of Gastric Ca. patient #63, 1:100 dilution) of 0 and a Fluorescence intesity (serum of Gastric Ca. patient #64, 1:100 dilution) of 0. For the same sequence, the Fluorescence intesity (serum of Gastric Ca. patient #65, 1:100 dilution) was 0, the Fluorescence intesity (serum of Healthy Donor #1, 1:100 dilution) was 0 and the Fluorescence intesity (serum of Healthy Donor #2, 1:100 dilution) was 35. It also gave a Fluorescence intesity (serum of Healthy Donor #3, 1:100 dilution) of 0, a Fluorescence intesity (serum of Healthy Donor #4, 1:100 dilution) of 0 and a Fluorescence intesity (serum of Healthy Donor #5, 1:100 dilution) of 0. The Fluorescence intesity (serum of Healthy Donor #6, 1:100 dilution) was 0, the Fluorescence intesity (serum of Healthy Donor #7, 1:100 dilution) was 0 and the Fluorescence intesity (serum of Healthy Donor #8, 1:100 dilution) was 361. For the same sequence, the Fluorescence intesity (serum of Healthy Donor #9, 1:100 dilution) was 39, the Fluorescence intesity (serum of Healthy Donor #10, 1:100 dilution) was 0 and the Fluorescence intesity (serum of Pancreas Ca. patient #46, 1:100 dilution) was 0. The Fluorescence intesity (serum of Pancreas Ca. patient #47, 1:100 dilution) was 6, the Fluorescence intesity (serum of Pancreas Ca. patient #48, 1:100 dilution) was 369 and the Fluorescence intesity (serum of Pancreas Ca. patient #49, 1:100 dilution) was 0. The Fluorescence intesity (serum of Pancreas Ca. patient #50, 1:100 dilution) was 0, the Fluorescence intesity (serum of Pancreas Ca. patient #51, 1:100 dilution) was 0 and the Fluorescence intesity (serum of Pancreas Ca. patient #52, 1:100 dilution) was 100. It also gave a Fluorescence intesity (serum of Pancreas Ca. patient #53, 1:100 dilution) of 0, a Fluorescence intesity (serum of Pancreas Ca. patient #54, 1:100 dilution) of 0 and a Fluorescence intesity (serum of Pancreas Ca. patient #55, 1:100 dilution) of 0. It also gave a Fluorescence intesity (serum of Uterine cervical Ca. patient #1, 1:100 dilution) of 11, a Fluorescence intesity (serum of Uterine cervical Ca. patient #2, 1:100 dilution) of 0 and a Fluorescence intesity (serum of Uterine cervical Ca. patient #3, 1:100 dilution) of 0. For the same sequence, the Fluorescence intesity (serum of Uterine cervical Ca. patient #4, 1:100 dilution) was 0, the Fluorescence intesity (serum of Uterine cervical Ca. patient #5, 1:100 dilution) was 0 and the Fluorescence intesity (serum of Uterine cervical Ca. patient #6, 1:100 dilution) was 1226. For the same sequence, the Fluorescence intesity (serum of Uterine cervical Ca. patient #7, 1:100 dilution) was 26, the Fluorescence intesity (serum of Uterine cervical Ca. patient #8, 1:100 dilution) was 26 and the Fluorescence intesity (serum of Uterine cervical Ca. patient #9, 1:100 dilution) was 58. For the same sequence, the Fluorescence intesity (serum of Uterine cervical Ca. patient #10, 1:100 dilution) was 14, the Fluorescence intesity (serum of Uterine cervical Ca. patient #11, 1:100 dilution) was 33 and the Fluorescence intesity (serum of Uterine cervical Ca. patient #12, 1:100 dilution) was 33. It also gave a Fluorescence intesity (serum of Uterine cervical Ca. patient #13, 1:100 dilution) of 397, a Fluorescence intesity (serum of Uterine cervical Ca. patient #14, 1:100 dilution) of 26 and a Fluorescence intesity (serum of Uterine cervical Ca. patient #15, 1:100 dilution) of 136. It also gave a Fluorescence intesity (serum of Uterine cervical Ca. patient #16, 1:100 dilution) of 145, a Fluorescence intesity (serum of Uterine cervical Ca. patient #17, 1:100 dilution) of 72 and a Fluorescence intesity (serum of Uterine cervical Ca. patient #18, 1:100 dilution) of 71. The Fluorescence intesity (serum of Uterine cervical Ca. patient #19, 1:100 dilution) was 92, the Fluorescence intesity (serum of Uterine cervical Ca. patient #20, 1:100 dilution) was 85 and the Fluorescence intesity (serum of Uterine cervical Ca. patient #21, 1:100 dilution) was 28. For the same sequence, the Fluorescence intesity (serum of Uterine cervical Ca. patient #22, 1:100 dilution) was 28, the Fluorescence intesity (serum of Uterine cervical Ca. patient #23, 1:100 dilution) was 82 and the Fluorescence intesity (serum of Uterine cervical Ca. patient #24, 1:100 dilution) was 2650. For the same sequence, the Fluorescence intesity (serum of Uterine cervical Ca. patient #25, 1:100 dilution) was 17, the Fluorescence intesity (serum of Uterine cervical Ca. patient #26, 1:100 dilution) was 166 and the Fluorescence intesity (serum of Uterine cervical Ca. patient #27, 1:100 dilution) was 33. The Fluorescence intesity (serum of Uterine cervical Ca. patient #28, 1:100 dilution) was 139, the Fluorescence intesity (serum of Uterine cervical Ca. patient #29, 1:100 dilution) was 21 and the Fluorescence intesity (serum of Uterine cervical Ca. patient #30, 1:100 dilution) was 50. It also gave a Fluorescence intesity (serum of Uterine cervical Ca. patient #31, 1:100 dilution) of 107, a Fluorescence intesity (serum of Uterine cervical Ca. patient #32, 1:100 dilution) of 18 and a Fluorescence intesity (serum of Uterine cervical Ca. patient #33, 1:100 dilution) of 191. For the same sequence, the Fluorescence intesity (serum of Uterine cervical Ca. patient #34, 1:100 dilution) was 17 and the Fluorescence intesity (serum of Uterine cervical Ca. patient #35, 1:100 dilution) was 21.
